Experimental data from patent publication US20180099931A1 (AbbVie S.à.r.l., priority 2016, published 2018).
Where two headings read alike, the source gives them in different places.

Biological target: T1, F508delCFTR (Homo sapiens, UniProt P13569, DEL508-508)
T1 construct: expressed in transfected cells; host or cells: CFBE41o- human lung-derived epithelial cells (CFBE4lo-F508delCFTR-HRP), doxycycline-inducible
Experiment: Cell Surface Expression-Horse Radish Peroxidase (CSE-HRP) Assay;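 on Maximum % activity (with co-corrector): co-corrector and positive control are both the same reference corrector at 2 µM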
Type: cell-based
Conditions: for Emax / Maximum % activity (with co-corrector): maximum at any tested concentration, normalized to on-plate positive control; for Emax: read-out: Maximum % activity (without co-corrector)
Protocol: Cell Surface Expression-Horse Radish Peroxidase (CSE-HRP) Assay;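 on Maximum % activity (with co-corrector): co-corrector and positive control are both the same reference corrector at 2 µM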
The development was achieved by expressing the F508delCFTR mutation along with a horseradish peroxidase (HRP) in the fourth exofacial loop, and then measuring the HRP activity using luminescence readout from these cells, CFBE4lo-F508delCFTR-HRP, that were incubated overnight with the test corrector compounds, either without or with the co-corrector. […] The test compounds were then added either without or with a co-corrector at the required concentrations and further incubated for 18-24 hours at 33° C. The highest concentration tested was 20 μM with an 8-point concentration response curve using a 3-fold dilution in both the test compound without or with the co-corrector. Three replicate plates were run to determine one EC50. All plates contained negative controls (dimethyl sulfoxide, DMSO) and positive control (2 μM of 3-[(2R,4R)-4-({[1-(2,2-difluoro-1,3-benzodioxol-5-yl)cyclopropyl]carbonyl}amino)-7-methoxy-3,4-dihydro-2H-chromen-2-yl]benzoic acid) as well as on-plate concentration response of the positive control. […] The raw counts from the experiment were analyzed using Accelrys® Assay Explorer v3.3.
1−[3*SDPositive Control+3*SDNegative Control/Absolute(MeanPositive Control−MeanNegative Control)]
wherein “SD” is standard deviation.
The % activity measured at each of the 8 test concentrations of the test compound added either without or with a co-corrector (2 μM of 3-[(2R,4R)-4-({[1-(2,2-difluoro-1,3-benzodioxol-5-yl)cyclopropyl]carbonyl}amino)-7-methoxy-3,4-dihydro-2H-chromen-2-yl]benzoic acid) was normalized to the on-plate positive control using the following formulae:
% activity(Test compound without co-corrector)=[(test compound without co-corrector response−DMSO response)/(positive control response−DMSO response)]*100
% activity(Test compound with co-corrector)=[(test compound with co-corrector response−DMSO response)/(positive control response−DMSO response)]*100
The maximum % activity achieved for the test compound either without or with a co-corrector at any tested concentration is presented in Table 4 along with the respective EC50's calculated using the following general sigmoidal curve with variable Hill slope equation (described as Model 42 in the Accelrys® Assay Explorer v3.3 software):
General sigmoidal curve with concentration, response, top, bottom, EC50 and Hill slope. This model describes a sigmoidal curve with an adjustable baseline, a. The equation can be used to fit curves where response is either increasing or decreasing with respect to the independent variable, “x”.
“x” is a concentration of drug under test. “y” is the response. “a” is the maximum response, and “d” is the minimum response “c” is the inflection point (EC50) for the curve. That is, “y” is halfway between the lower and upper asymptotes when x=c. “b” is the slope-factor or Hill coefficient. The sign of b is positive when the response increases with increasing dose and is negative when the response decreases with increasing dose (inhibition).

[1] = test compound without co-corrector
[2] = test compound without co-corrector, read-out: EC50 (without co-corrector)
[3] = with co-corrector (2 μM of 3-[(2R,4R)-4-({[1-(2,2-difluoro-1,3-benzodioxol-5-yl)cyclopropyl]carbonyl}amino)-7-methoxy-3,4-dihydro-2H-chromen-2-yl]benzoic acid), read-out: EC50 (with co-corrector)
[4] = with co-corrector (2 μM of 3-[(2R,4R)-4-({[1-(2,2-difluoro-1,3-benzodioxol-5-yl)cyclopropyl]carbonyl}amino)-7-methoxy-3,4-dihydro-2H-chromen-2-yl]benzoic acid)
[5] = CSE-HRP, test compound without co-corrector, read-out: EC50 (without co-corrector)
[6] = CSE-HRP, with co-corrector (2 μM of 3-[(2R,4R)-4-({[1-(2,2-difluoro-1,3-benzodioxol-5-yl)cyclopropyl]carbonyl}amino)-7-methoxy-3,4-dihydro-2H-chromen-2-yl]benzoic acid), read-out: EC50 (with co-corrector)
[7] = CSE-HRP, with co-corrector (2 μM)

T1 sequence (P13569 with tags, fused parts or gaps DEL508-508): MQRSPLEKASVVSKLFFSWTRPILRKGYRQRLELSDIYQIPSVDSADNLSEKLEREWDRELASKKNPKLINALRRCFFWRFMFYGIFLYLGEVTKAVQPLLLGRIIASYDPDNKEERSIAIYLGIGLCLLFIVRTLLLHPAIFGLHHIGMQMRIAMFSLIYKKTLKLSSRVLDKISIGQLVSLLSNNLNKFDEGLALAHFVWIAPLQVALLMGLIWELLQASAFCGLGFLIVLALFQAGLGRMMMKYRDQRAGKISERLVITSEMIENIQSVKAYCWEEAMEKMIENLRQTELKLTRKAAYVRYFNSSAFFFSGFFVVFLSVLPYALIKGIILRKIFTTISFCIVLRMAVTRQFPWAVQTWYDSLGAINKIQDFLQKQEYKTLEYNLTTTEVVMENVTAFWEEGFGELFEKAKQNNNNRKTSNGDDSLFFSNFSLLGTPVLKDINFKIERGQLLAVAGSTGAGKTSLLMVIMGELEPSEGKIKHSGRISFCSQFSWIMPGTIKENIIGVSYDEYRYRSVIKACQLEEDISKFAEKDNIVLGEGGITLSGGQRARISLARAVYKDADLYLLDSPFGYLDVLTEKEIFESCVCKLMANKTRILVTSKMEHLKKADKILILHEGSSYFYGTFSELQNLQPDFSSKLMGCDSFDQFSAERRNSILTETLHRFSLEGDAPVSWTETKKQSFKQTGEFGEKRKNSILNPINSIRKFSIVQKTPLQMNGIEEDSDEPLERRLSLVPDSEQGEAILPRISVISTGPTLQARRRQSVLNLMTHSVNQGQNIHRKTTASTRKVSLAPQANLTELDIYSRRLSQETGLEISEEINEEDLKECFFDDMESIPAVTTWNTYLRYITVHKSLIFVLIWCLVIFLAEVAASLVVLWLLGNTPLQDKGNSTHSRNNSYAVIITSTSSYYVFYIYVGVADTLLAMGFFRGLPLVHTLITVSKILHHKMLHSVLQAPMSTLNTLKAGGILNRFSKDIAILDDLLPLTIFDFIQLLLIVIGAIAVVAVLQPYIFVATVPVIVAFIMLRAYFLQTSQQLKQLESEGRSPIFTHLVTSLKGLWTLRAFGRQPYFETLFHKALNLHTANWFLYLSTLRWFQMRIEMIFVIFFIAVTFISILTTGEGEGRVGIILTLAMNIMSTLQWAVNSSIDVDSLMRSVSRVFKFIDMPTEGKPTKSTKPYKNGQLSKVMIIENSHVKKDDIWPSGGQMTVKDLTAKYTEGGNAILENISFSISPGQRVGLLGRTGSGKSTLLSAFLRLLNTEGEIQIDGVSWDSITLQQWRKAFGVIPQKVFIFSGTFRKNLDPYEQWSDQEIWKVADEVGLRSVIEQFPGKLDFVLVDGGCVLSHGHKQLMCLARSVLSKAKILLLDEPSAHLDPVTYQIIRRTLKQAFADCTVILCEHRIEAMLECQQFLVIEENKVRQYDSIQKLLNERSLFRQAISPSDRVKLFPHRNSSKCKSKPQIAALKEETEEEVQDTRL

Row | Emax [1] [%] | EC50 [2] [µM] | EC50 [3] [µM] | Maximum % activity (with co-corrector) (with co-corrector (2 μM)) | Maximum % activity (with co-corrector) [4] | EC50 [5] [µM] | EC50 [6] [µM] | Maximum % activity (with co-corrector) [7] | Emax (CSE-HRP, without co-corrector) [%] | Emax (without co-corrector) [%] | Structure (SMILES)
1 | < 100 | > 10 | 1 to 10 | ++ (≥150 and <350) |  |  |  |  |  |  | Cn1c(=O)c2c(N[C@H]3[C@H](C(C)(C)C)[C@@H](C(=O)O)N(C(=O)C4CCCCC4)[C@H]3c3ccccc3)nccc2n(C)c1=O [III-157]
2 | < 100 | > 10 | 1 to 10 |  | ++ (≥150 and <350) |  |  |  |  |  | COCCOc1ncc(C(F)(F)F)cc1CN[C@@H]1[C@@H](C(C)(C)C)[C@H](C(=O)O)N(C(=O)C2CCCCC2)[C@@H]1c1ccccc1 (racemic) [III-80]
3 | > 200 | 1 to 10 | < 1 |  | +++ (≥350) |  |  |  |  |  | COc1nc2ccccc2cc1CN[C@H]1[C@H](C(C)(C)C)[C@@H](C(=O)O)N(C(=O)OC(C)C)[C@H]1c1ccccc1C [II-579]
4 |  |  |  |  |  | < 1 | 1 to 10 | ++ (≥150 and <350) | < 100 |  | CC(C)(C)[C@@H]1[C@@H](NCc2cc(Cl)ccc2OC(F)(F)F)[C@@H](c2ccccc2)N(C(=O)C2CCCCC2)[C@H]1C(=O)O (racemic) [II-75]
5 | 100 to 200 | 1 to 10 | 1 to 10 |  | ++ (≥150 and <350) |  |  |  |  |  | COc1ccc(Cl)cc1CN[C@H]1[C@H](C(C)(C)C)[C@@H](C(=O)O)N(C(=O)OC(C)C)[C@H]1c1cccnc1N(C)C [II-568]
6 |  |  |  |  |  | 1 to 10 | 1 to 10 | +++ (≥350) | 100 to 200 |  | COc1ccc(C(F)(F)F)cc1CN[C@H]1[C@H](C(C)(C)C)[C@@H](C(=O)O)N(C(=O)C2Cc3ccccc3CO2)[C@H]1c1ccccc1 (stereo partly shown) [II-299]
7 |  | 1 to 10 | 1 to 10 | +++ (≥350) |  |  |  |  |  | > 200 | COc1ccc(C(C)(C)C)cc1CN[C@H]1[C@H](C(C)(C)C)[C@@H](C(=O)O)N(C(=O)[C@@H](C)Oc2ccccc2)[C@H]1c1ccccc1 [Example I-137]
8 | > 200 | < 1 | < 1 | +++ (≥350) |  |  |  |  |  |  | CCC(C)c1ccc(OC)c(CN[C@H]2[C@H](C(C)(C)C)[C@@H](C(=O)O)N(C(=O)C3CCCCC3)[C@H]2c2ccccc2)c1 (stereo partly shown) [III-168]
9 |  | 1 to 10 | 1 to 10 | +++ (≥350) |  |  |  |  |  | > 200 | CCc1ccccc1[C@H]1[C@@H](NCc2cc(C3CCC3)cnc2OC)[C@H](C(C)(C)C)[C@@H](C(=O)O)N1C(=O)[C@@H]1CCCO1 [Example 111, (2S,3S,4S,5S)-3-tert-butyl-4-{[(5-cyclobutyl-2-methoxypyridin-3-yl)methyl]amino}-5-(2-ethylphenyl)-1-[(2S)-oxolane-2-carbonyl]pyrrolidine-2-carboxylic acid]
10 |  | 1 to 10 | < 1 | +++ (≥350) |  |  |  |  |  | > 200 | COc1ccc(C(F)(F)F)cc1CN[C@@H]1[C@@H](C(C)(C)C)[C@H](C(=O)O)N(C(=O)C2CCCCC2)[C@@H]1c1ccccc1N(C)C (racemic) [Example I-22]
11 |  |  |  |  |  | 1 to 10 | 1 to 10 | +++ (≥350) | 100 to 200 |  | COc1ncc(C2CCC2)cc1CN[C@H]1[C@H](C(C)(C)C)[C@@H](C(=O)O)N(C(=O)[C@@H]2CCCO2)[C@H]1c1cccnc1N(C)C [Example I-281]
12 | < 100 | > 10 | 1 to 10 |  | ++ (≥150 and <350) |  |  |  |  |  | COc1cc(C(F)(F)F)cc(N(C)[C@@H]2[C@@H](C(C)(C)C)[C@H](C(=O)O)N(C(=O)C3CCCCC3)[C@@H]2c2ccccc2)n1 (racemic) [III-17]
13 |  |  |  |  |  | 1 to 10 | 1 to 10 | +++ (≥350) | 100 to 200 |  | COc1ccc(C(C)(C)C)cc1CN[C@H]1[C@H](C(C)(C)C)[C@@H](C(=O)O)N(C(=O)CC2(C)CCC(F)(F)C2)[C@H]1c1ccccc1 (stereo partly shown) [II-220]
